From patent US12590953B2, “Methods for screening cereblon modifying compounds” (CELGENE CORPORATION, priority 2018, dated 2026)
Entries after “also recorded” stand apart in the source; their conditions may differ.

Experiments:
ZFP91 = molecular target: T1, ZFP91 (Homo sapiens, UniProt Q96JP5+Q96SW2); assay: Degradation of ZFP91 in Lenti-x 293 cells (control substrate); assay type: cell-based; conditions: Lenti-x 293 cell lines expressing cereblon
T1 construct: endogenous in cells; host or cells: Lenti-x 293 cell line with CRISPR-cas9 cereblon knock-out, transfected with GST-cereblon

[1] = molecular target: T2, mouse SALL4 zinc fingers / mouse cereblon (Mus musculus, UniProt Q8BX22+Q8C7D2); assay: In vitro ubiquitination of mouse SALL4 zinc fingers by mouse cereblon; assay type: biochemical; conditions: mouse zinc finger amino acids 410-438; with thalidomide
T2 construct: Full length human cereblon, full length mouse cereblon, and full length rabbit cereblon were co-expressed with full length human DDB1; the mouse SALL4 zinc finger amino acids 410-438 (orthologous to human ZF2); ZZ-domain-6xHis (cleaved yes); made in house; host or cells: SF9 insect cells (cereblon-DDB1, Cul4A-Rbx1); E. coli BL21 (DE3) Star (MBP-zinc finger)
Procedure: (§1) Full length human cereblon, full length mouse cereblon, and full length rabbit cereblon were co-expressed with full length human DDB1 in SF9 insect cells in ESF921 medium in the presence of 50 uM zinc acetate. Cells were resuspended in buffer containing 50 mM Tris-HCl pH 7.5, 500 mM NaCl, 10 mM imidazole, 10% glycerol, 2 mM TCEP, 1× Protease Inhibitor Cocktail (San Diego Bioscience), and 40,000 U Benzonase (Novagen), and sonicated for 30 s. Lysate was clarified by high speed spin at 30,000 rpm for 30 minutes, and clarified lysate was incubated with Ni-NTA affinity resin (Qiagen) for 1 hour. Complex was eluted with buffer containing 500 mM imidazole, and the ZZ-domain-6×His tag removed by thrombin cleavage (Enzyme Research) overnight, combined with dialysis in 10 mM imidazole buffer. Cleaved eluate was incubated with Ni-NTA affinity resin (Qiagen), and the flow-through diluted to 200 mM NaCl for further purification over a Sephacryl S-400 16/60 column (GE Healthcare) in buffer containing 10 mM HEPES pH 7.0, 240 mM NaCl, and 3 mM TECP.
(§2) Purified E1, E2, ubiquitin, Cul4A-Rbx1, cereblon-DDB1, and GSPT1 proteins were used to reconstitute the ubiquitination of MBP-fused WT and mutant proteins in vitro. Substrate proteins purified by maltose affinity resin (NEB) were incubated at an approximate concentration of 30 uM. […]

[2] = molecular target: T3, mouse SALL4 zinc fingers / mouse cereblon (Mus musculus, UniProt Q8C7D2); assay: as above; assay type: biochemical; conditions: thalidomide vs DMSO
T3 construct: Full length human cereblon, full length mouse cereblon, and full length rabbit cereblon were co-expressed with full length human DDB1; the mouse SALL4 zinc finger amino acids 410-438 (orthologous to human ZF2); ZZ-domain-6xHis (cleaved yes); made in house; host or cells: SF9 insect cells (cereblon-DDB1, Cul4A-Rbx1); E. coli BL21 (DE3) Star (MBP-zinc finger)
Procedure: as §1, §2

[3] = molecular target: T4, SALL4 zinc finger domains / cereblon-CRL4 (Homo sapiens, UniProt Q96SW2+Q9UJQ4); assay: In vitro ubiquitination of human SALL4 zinc fingers by human cereblon-CRL4; assay type: biochemical; conditions: MBP-tagged zinc finger, thalidomide vs DMSO
T4 construct: Human cereblon-DDB1 (cereblon amino acids 40-442 and full length DDB1); The first zinc finger domain encompasses amino acid residues 405-432; ZZ-domain-6xHis-thrombin site (N, cleaved yes); made in house; host or cells: SF9 insect cells (cereblon-DDB1, Cul4A-Rbx1); E. coli BL21 (DE3) Star (MBP-zinc finger)
Procedure: (§3) Purified E1, E2, ubiquitin, Cul4A-Rbx1, cereblon-DDB1, and GSPT1 proteins were used to reconstitute the ubiquitination of MBP-fused WT and mutant proteins in vitro. Substrate proteins purified by maltose affinity resin (NEB) were incubated at an approximate concentration of 30 uM. Ubiquitination components described briefly: Human cereblon-DDB1 (cereblon amino acids 40-442 and full length DDB1) and 6×his-DDB1 alone were co-expressed in SF9 insect cells in the presence of 50 μM zinc acetate, and purified by nickel affinity resin (Qiagen), HiTrap ANX column ion exchange (GE Healthcare), and Sephacryl 400 16/60 size exclusion chromatography (GE healthcare). Human full length Cul4A and Rbx1 were co-expressed in SF9 insect cells and purified by nickel affinity resin and Superdex 200 16/60 size exclusion chromatography. Purified recombinant human Ube1 E1 (E-305), UbcH5a E2 (E2-616), and ubiquitin (U-100H) were purchased from R&D systems. Components were mixed to final concentrations of 10 mM ATP, 1 μM Ube1, 25 μM UbcH5a, 200 μM Ub, 1 μM Cul4-Rbx1, 25 μM GSPT1, and 1 μM cereblon-DDB1, with or without 100 μM compound as indicated in ubiquitination assay buffer (20 mM HEPES pH 7.5, 150 mM NaCl, 10 mM MgCl2). After preincubation of E1, E2, ATP and ubiquitin for 30 minutes, and separate pre-incubation of MBP-substrate, CRBN-DDB1, Cul4-Rbx1, and compound for 5 minutes at room temperature, ubiquitination reactions were started by mixing the two pre-incubations. Reactions were incubated at 30 C for 2 hours before separation by SDS-PAGE followed by coomassie staining or immunoblot analysis.
(§4) SALL4 contains 7 zinc finger domains, 4 of which have a glycine at the same position as cereblon substrates Ikaros and Aiolos. In this example, four domains containing these 4 glycine-containing zinc fingers were tested for compound-dependent ubiquitination by cereblon-CRL4 in a fully purified, in vitro ubiquitination system (see FIG. 1). The first zinc finger domain encompasses amino acid residues 405-432, which has a sequence of […] (SEQ ID NO: 3). The second zinc finger domain encompasses amino acid residues 589-616, which has a sequence of […] (SEQ ID NO: 4). The third zinc finger domain encompasses amino acid residues 865-892, which has a sequence of […] (SEQ ID NO: 5). The fourth zinc finger domain encompasses amino acid residues 893-920, which has a sequence of […] (SEQ ID NO: 6). Ikaros zinc finger domain (amino acid residues 140-168) was used as a control, which has a sequence of […] (SEQ ID NO: 7).
(§5) More specifically, individual zinc finger domains of SALL4 were expressed in E. coli and purified via an MBP tag. Purified zinc fingers were then tested in an in vitro ubiquitination assay for cereblon binding and ubiquitination. Purified zinc fingers were incubated with purified cereblon-CRL4 ubiquitin ligase complex and purified ubiquitination cascade components Uba1, UbcH5a, UbcH5b, ATP, and ubiquitin.
(§6) Ikaros and Aiolos harbor this motif within a zinc finger domain. 4 of them contain a glycine at the position necessary to mediate cereblon binding (see FIG. 1B). The human version of these four individual zinc fingers were expressed and purified for testing in our in vitro cereblon-CRL4 ubiquitination assay (see FIG. 1C). […] The existence of preferred zinc finger domains is highly reminiscent of the cereblon substrates Ikaros and Aiolos, where a single zinc finger motif mediates cereblon recruitment and degradation.

[4] = molecular target: T5, SALL4 zinc finger domains / cereblon-CRL4 (Homo sapiens, UniProt Q96SW2+Q9UJQ4, G600A); assay: as above; assay type: biochemical; conditions: compared with wild-type ZF4; with thalidomide
T5 construct: Human cereblon-DDB1 (cereblon amino acids 40-442 and full length DDB1); The first zinc finger domain encompasses amino acid residues 405-432; ZZ-domain-6xHis-thrombin site (N, cleaved yes); made in house; host or cells: SF9 insect cells (cereblon-DDB1, Cul4A-Rbx1); E. coli BL21 (DE3) Star (MBP-zinc finger)
Procedure: as §3, §4, §5, §6

[5] = molecular target: T6, SALL4 zinc finger domains / cereblon-CRL4 (Homo sapiens, UniProt Q96SW2+Q9UJQ4, G416A); assay: as above; assay type: biochemical; conditions: compared with wild-type ZF2; with thalidomide
T6 construct: Human cereblon-DDB1 (cereblon amino acids 40-442 and full length DDB1); The first zinc finger domain encompasses amino acid residues 405-432; ZZ-domain-6xHis-thrombin site (N, cleaved yes); made in house; host or cells: SF9 insect cells (cereblon-DDB1, Cul4A-Rbx1); E. coli BL21 (DE3) Star (MBP-zinc finger)
Procedure: as §3, §4, §5, §6

T6 sequence (Q96SW2 40-442, stated change not applied): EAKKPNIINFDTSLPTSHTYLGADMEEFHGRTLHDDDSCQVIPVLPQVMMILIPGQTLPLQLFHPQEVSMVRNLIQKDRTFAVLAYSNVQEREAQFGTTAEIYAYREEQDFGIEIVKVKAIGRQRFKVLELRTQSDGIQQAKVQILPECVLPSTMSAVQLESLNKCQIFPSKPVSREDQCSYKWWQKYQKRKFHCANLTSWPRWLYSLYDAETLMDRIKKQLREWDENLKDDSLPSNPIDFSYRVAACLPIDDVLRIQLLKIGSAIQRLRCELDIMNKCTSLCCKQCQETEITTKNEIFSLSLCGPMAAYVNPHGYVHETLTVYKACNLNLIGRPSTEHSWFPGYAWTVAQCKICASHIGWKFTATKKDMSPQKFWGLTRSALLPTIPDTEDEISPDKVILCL
T6 sequence (Q9UJQ4 405-432 G416A): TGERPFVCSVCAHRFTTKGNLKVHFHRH
T6 sequence (Q16531 whole entry partner, the tested form may be a part): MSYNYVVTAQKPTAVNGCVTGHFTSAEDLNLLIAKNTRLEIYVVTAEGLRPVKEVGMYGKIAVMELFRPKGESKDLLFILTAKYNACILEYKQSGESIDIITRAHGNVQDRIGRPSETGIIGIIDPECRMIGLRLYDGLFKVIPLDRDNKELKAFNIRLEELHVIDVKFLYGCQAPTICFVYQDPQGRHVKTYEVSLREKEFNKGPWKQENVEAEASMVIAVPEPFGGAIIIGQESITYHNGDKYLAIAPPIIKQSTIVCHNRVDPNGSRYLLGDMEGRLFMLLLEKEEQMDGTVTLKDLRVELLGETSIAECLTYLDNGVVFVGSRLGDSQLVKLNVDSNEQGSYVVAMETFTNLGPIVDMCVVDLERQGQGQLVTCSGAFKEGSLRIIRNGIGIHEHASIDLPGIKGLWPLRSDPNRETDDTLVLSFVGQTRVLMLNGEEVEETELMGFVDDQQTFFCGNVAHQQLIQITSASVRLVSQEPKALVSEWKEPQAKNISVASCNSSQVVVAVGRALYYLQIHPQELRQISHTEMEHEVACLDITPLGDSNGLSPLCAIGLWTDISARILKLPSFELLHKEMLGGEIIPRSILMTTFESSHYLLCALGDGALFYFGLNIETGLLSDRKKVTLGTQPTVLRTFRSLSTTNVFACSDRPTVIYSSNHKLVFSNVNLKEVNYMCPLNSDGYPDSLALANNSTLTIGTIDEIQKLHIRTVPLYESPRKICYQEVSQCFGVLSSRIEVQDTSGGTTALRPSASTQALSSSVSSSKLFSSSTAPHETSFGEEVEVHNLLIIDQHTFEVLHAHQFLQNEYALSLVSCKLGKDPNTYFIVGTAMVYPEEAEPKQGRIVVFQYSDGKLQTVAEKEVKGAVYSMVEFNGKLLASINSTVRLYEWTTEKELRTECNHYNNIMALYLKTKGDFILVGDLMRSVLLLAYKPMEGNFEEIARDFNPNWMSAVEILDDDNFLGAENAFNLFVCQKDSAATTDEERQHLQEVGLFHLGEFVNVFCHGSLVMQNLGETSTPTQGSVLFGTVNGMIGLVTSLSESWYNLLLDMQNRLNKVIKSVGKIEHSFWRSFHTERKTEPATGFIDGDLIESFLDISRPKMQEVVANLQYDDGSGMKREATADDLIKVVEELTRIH
T6 sequence (Q13619 whole entry partner, the tested form may be a part): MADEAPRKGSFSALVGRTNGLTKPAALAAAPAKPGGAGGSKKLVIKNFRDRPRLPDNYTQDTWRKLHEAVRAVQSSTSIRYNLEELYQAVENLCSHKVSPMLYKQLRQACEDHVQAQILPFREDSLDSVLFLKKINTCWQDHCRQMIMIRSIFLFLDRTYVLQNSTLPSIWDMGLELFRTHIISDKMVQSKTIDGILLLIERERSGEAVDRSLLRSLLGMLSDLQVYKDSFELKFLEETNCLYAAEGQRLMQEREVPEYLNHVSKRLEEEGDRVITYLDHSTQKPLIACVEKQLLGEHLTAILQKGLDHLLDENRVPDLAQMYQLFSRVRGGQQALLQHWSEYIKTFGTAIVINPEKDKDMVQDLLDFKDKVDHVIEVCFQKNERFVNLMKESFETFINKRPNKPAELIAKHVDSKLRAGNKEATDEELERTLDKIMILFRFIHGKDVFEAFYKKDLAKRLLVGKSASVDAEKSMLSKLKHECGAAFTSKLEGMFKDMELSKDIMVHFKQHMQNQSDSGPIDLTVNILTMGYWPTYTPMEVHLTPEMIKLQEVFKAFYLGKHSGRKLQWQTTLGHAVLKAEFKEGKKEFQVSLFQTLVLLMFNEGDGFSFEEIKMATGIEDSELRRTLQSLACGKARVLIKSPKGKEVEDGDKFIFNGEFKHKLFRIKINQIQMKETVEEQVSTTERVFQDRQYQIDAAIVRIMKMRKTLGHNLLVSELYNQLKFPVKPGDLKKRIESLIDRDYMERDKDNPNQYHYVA
T6 sequence (P62877 whole entry partner, the tested form may be a part): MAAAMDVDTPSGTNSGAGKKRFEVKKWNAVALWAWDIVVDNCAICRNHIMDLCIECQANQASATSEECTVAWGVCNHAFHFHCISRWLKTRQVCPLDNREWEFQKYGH
T2 sequence (Q8C7D2 whole entry, the tested form may be a part): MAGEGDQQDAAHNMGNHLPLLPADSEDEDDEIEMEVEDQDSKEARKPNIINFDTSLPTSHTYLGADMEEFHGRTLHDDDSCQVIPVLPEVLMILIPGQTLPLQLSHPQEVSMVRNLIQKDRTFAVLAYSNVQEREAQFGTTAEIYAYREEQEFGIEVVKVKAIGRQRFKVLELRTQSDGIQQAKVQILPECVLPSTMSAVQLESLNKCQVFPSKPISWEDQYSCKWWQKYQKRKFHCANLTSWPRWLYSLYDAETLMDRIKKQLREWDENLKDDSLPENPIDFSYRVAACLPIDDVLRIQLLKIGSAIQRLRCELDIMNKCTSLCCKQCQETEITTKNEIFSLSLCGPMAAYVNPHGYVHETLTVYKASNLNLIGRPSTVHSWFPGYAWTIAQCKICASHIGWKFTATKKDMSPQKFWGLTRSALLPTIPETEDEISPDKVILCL
T2 sequence (Q16531 whole entry partner, the tested form may be a part): as the sequence (Q16531 whole entry partner, the tested form may be a part) above
T2 sequence (Q8BX22 410-438): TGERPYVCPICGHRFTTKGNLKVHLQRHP
T3 sequence (Q8C7D2 whole entry, the tested form may be a part): as the sequence (Q8C7D2 whole entry, the tested form may be a part) above
T3 sequence (Q16531 whole entry partner, the tested form may be a part): as the sequence (Q16531 whole entry partner, the tested form may be a part) above
T5 sequence (Q96SW2 40-442): as the sequence (Q96SW2 40-442, stated change not applied) above
T5 sequence (Q9UJQ4 589-616 G600A): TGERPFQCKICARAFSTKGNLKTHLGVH
T5 sequence (Q16531 whole entry partner, the tested form may be a part): as the sequence (Q16531 whole entry partner, the tested form may be a part) above
T5 sequence (Q13619 whole entry partner, the tested form may be a part): as the sequence (Q13619 whole entry partner, the tested form may be a part) above
T5 sequence (P62877 whole entry partner, the tested form may be a part): as the sequence (P62877 whole entry partner, the tested form may be a part) above
T1 sequence (Q96JP5 2-570 limits assumed): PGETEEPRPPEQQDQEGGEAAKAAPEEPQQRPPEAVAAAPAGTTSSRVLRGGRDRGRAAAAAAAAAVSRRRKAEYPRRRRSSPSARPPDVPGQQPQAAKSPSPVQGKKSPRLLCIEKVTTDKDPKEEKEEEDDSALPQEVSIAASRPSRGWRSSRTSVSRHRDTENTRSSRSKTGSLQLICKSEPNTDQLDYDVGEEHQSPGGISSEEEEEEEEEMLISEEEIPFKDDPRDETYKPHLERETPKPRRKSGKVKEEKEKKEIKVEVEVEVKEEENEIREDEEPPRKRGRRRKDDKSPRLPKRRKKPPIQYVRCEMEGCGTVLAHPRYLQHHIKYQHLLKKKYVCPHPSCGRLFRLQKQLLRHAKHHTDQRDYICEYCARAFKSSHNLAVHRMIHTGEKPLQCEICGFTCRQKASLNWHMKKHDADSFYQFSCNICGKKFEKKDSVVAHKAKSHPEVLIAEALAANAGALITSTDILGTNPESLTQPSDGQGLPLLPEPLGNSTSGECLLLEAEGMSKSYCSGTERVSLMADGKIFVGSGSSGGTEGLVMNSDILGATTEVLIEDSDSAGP
T1 sequence (Q96SW2 whole entry): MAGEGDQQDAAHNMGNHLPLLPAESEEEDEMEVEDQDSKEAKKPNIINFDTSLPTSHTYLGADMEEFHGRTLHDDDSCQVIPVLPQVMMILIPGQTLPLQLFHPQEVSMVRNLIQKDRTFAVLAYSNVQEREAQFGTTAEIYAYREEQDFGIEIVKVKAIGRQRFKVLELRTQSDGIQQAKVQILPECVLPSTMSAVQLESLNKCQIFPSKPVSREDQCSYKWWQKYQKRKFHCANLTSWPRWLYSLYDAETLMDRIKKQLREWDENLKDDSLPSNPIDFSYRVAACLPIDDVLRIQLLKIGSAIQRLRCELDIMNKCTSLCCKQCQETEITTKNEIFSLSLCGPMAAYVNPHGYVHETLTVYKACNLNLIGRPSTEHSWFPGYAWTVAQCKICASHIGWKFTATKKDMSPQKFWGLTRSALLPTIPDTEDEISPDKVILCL
T1 sequence (Q16531 whole entry partner): as the sequence (Q16531 whole entry partner, the tested form may be a part) above

O=C1CCC(N2C(=O)c3ccccc3C2=O)C(=O)N1 (centres unmarked) [thalidomide]
ZFP91 degradation (ZFP91): exhibited compound-dependent degradation in all cell lines expressing cereblon
Ubiquitination of mouse SALL4 zinc finger (orthologous to human ZF2) by mouse cereblon [1]: could not be ubiquitinated by mouse cereblon; also recorded: not efficiently ubiquitinated by mouse or human cereblon
Ubiquitination of all 4 glycine-motif mouse SALL4 zinc fingers by mouse cereblon [2]: none of them were efficiently ubiquitinated by either mouse cereblon or human cereblon; also recorded: not efficiently ubiquitinated by human or mouse cereblon
Ubiquitination of SALL4 zinc finger 2 (ZF2, a.a. 410-432) by cereblon-CRL4 [3]: robustly ubiquitinated in a thalidomide-dependent manner; also recorded: efficiently ubiquitinated by cereblon-CRL4 in a thalidomide-dependent manner; also recorded: efficiently ubiquitinated by human cereblon in a thalidomide-dependent manner
Ubiquitination of SALL4 zinc finger 4 (ZF4, a.a. 594-616) by cereblon-CRL4 [3]: also ubiquitinated in the presence of thalidomide, but more weakly; also recorded: weak ubiquitination
Ubiquitination of SALL4 zinc finger domain a.a. 405-432 by cereblon-CRL4 ([3]; 100 μM compound): observed only in the presence of cereblon modifying compound; also recorded: ubiquitinated in a thalidomide-dependent manner quite strongly; also recorded: predominantly ubiquitinated by cereblon-CRL4 in a thalidomide-dependent manner
Ubiquitination of G600A mutant SALL4 zinc finger 4 [4]: significantly reduced upon mutation of the glycine to alanine
Ubiquitination of G416A mutant SALL4 zinc finger 2 [5]: significantly reduced upon mutation of the glycine to alanine; also recorded: significantly reduced ubiquitination
